Data published in EPA's ToxRefDB 2.

Legend:
[1] = test system: rabbit; conditions: Prenatal developmental toxicity study; new zealand white; Oral; Gavage/Intubation; dose end: 18 GD; group: maternal; systemic / in life observation / body weight / body weight + systemic / in life observation / body weight / body weight gain + systemic / in…
[2] = test system: rat; conditions: Carcinogenicity, fischer, Inhalation, Whole-Body, dose end: 104 week, group: systemic
[3] = test system: rat; conditions: Prenatal developmental toxicity study, Sprague-Dawley, Oral, Gavage/Intubation, dose end: 15 GD
[4] = test system: mouse; conditions: Subchronic inhalation toxicity, cd1, Whole-Body, dose end: 13 week, group: systemic
[5] = test system: rat; conditions: Developmental neurotoxicity study; sprague dawley; Oral; Gavage/Intubation; dose end: 68 PND; group: cannot be grouped; systemic / in life observation / mortality / mortality
[6] = test system: rat; conditions: Neurotoxicity screening battery; fischer; Inhalation; Whole-Body; dose end: 1 day; group: cannot be grouped; systemic / in life observation / clinical signs / abnormal gait + systemic / in life observation / clinical signs / body temperature + …
[7] = test system: rat; conditions: Subchronic inhalation toxicity, fischer, Whole-Body, dose end: 13 week, group: systemic
[8] = test system: mouse; conditions: Carcinogenicity, b6c3f1, Oral, Feed, dose end: 78 week, group: systemic
[9] = test system: rat; conditions: Carcinogenicity, fischer, Oral, Feed, dose end: 78 week, group: systemic
[10] = test system: rat; conditions: Prenatal developmental toxicity study; sprague dawley; Dermal; Topical; dose end: 15 GD; group: maternal; systemic / in life observation / body weight / body weight gain + systemic / in life observation / clinical signs / [other]
[11] = test system: rat; conditions: Prenatal developmental toxicity study, long evans, Oral, Gavage/Intubation, dose end: 15 GD
[12] = test system: rabbit; conditions: Prenatal developmental toxicity study; new zealand white; Dermal; Topical; dose end: 18 GD; group: maternal; systemic / in life observation / clinical signs / [other]
[13] = systemic / in life observation / body weight / body weight + systemic / in life observation / body weight / body weight gain + systemic / in…
[14] = systemic / pathology microscopic / testes / adenoma
[15] = group: developmental, systemic / in life observation / body weight / fetal weight
[16] = group: maternal, systemic / in life observation / body weight / body weight gain + systemic / in life observation / mortality / mortality + systemic / organ …
[17] = systemic / in life observation / clinical signs / reduced activity
[18] = systemic / in life observation / clinical signs / reduced activity + systemic / hematology / erythrocyte (rbc) count differential / …
[19] = systemic / in life observation / body weight / body weight
[20] = systemic / in life observation / body weight / body weight + systemic / pathology microscopic / liver / carcinoma + systemic / in life …
[21] = systemic / pathology microscopic / liver / carcinoma + systemic / pathology microscopic / zymbal's gland / squamous cell carcinoma + …
[22] = group: developmental, developmental / developmental malformation / bone / irregular ossification + developmental / developmental malformation / general / runts + …
[23] = group: developmental, developmental / developmental malformation / bone / irregular ossification + developmental / developmental malformation / kidney / …
[24] = group: maternal, systemic / in life observation / clinical signs / [other] + systemic / in life observation / clinical signs / hyperactivity + reproductive…

CC(C)O [Isopropanol]
LEL [1]: 480 mg/kg/day
LOAEL [1]: > 480 mg/kg/day
NEL [1]: 240 mg/kg/day
NOAEL [1]: ≥ 480 mg/kg/day
LOAEL [2, 13]: 2500 ppm
NOAEL [2, 13]: 500 ppm
LEL [2, 14]: 500 ppm
NEL [2, 14]: < 500 ppm
LEL [3, 15]: 800 mg/kg/day
LOAEL [3, 15]: > 1200 mg/kg/day
NEL [3, 15]: 400 mg/kg/day
NOAEL [3, 15]: ≥ 1200 mg/kg/day
LOAEL [3, 16]: > 1200 mg/kg/day
NEL [3, 16]: 400 mg/kg/day
NOAEL [3, 16]: ≥ 1200 mg/kg/day
LEL ([3]; group: maternal, systemic / in life observation / mortality / mortality): 800 mg/kg/day
LOAEL [4, 13]: > 5000 ppm
NEL [4, 13]: 500 ppm
NOAEL [4, 13]: ≥ 5000 ppm
LEL ([4]; systemic / in life observation / clinical signs / ataxia + systemic / in life observation / clinical signs / lethargy + systemic / in life …): 1500 ppm
LEL [5]: 1200 mg/kg/day
LOAEL [5]: 1200 mg/kg/day
NEL [5]: 700 mg/kg/day
NOAEL [5]: 700 mg/kg/day
LEL [6]: 5000 ppm
LOAEL [6]: > 10000 ppm
NEL [6]: 1500 ppm
NOAEL [6]: ≥ 10000 ppm
LEL [7, 17]: 500 ppm
NEL [7, 17]: < 500 ppm
LOAEL [7, 18]: > 5000 ppm
NOAEL [7, 18]: ≥ 5000 ppm

c1ccc(NNc2ccccc2)cc1 [1,2-Diphenylhydrazine]
LOAEL [8, 19]: 60 mg/kg/day
LEL [8, 20]: 60 mg/kg/day
NEL [8, 20]: 6 mg/kg/day
NOAEL [8, 20]: 6 mg/kg/day
LEL [9, 19]: 2 mg/kg/day
NEL [9, 19]: < 2 mg/kg/day
LOAEL [9, 21]: > 4 mg/kg/day
NOAEL [9, 21]: ≥ 4 mg/kg/day

NCCO [Ethanolamine]
LEL [10]: 225 mg/kg/day
LOAEL [10]: > 225 mg/kg/day
NEL [10]: 75 mg/kg/day
NOAEL [10]: ≥ 225 mg/kg/day
LOAEL [11, 22]: > 500 mg/kg/day
NOAEL [11, 22]: ≥ 500 mg/kg/day
LEL [11, 23]: 50 mg/kg/day
NEL [11, 23]: < 50 mg/kg/day
NEL ([11]; group: maternal, systemic / in life observation / clinical signs / [other] + systemic / in life observation / clinical signs / hyperactivity): 300 mg/kg/day
LEL [11, 24]: 500 mg/kg/day
LOAEL [11, 24]: > 500 mg/kg/day
NOAEL [11, 24]: ≥ 500 mg/kg/day
LEL [12]: 75 mg/kg/day
LOAEL [12]: > 75 mg/kg/day
NEL [12]: 25 mg/kg/day
NOAEL [12]: ≥ 75 mg/kg/day
